24 molecules from ChEMBL document CHEMBL3868631, “Discovery of SOAT2 inhibitors from synthetic small molecules” (Bioorg Med Chem Lett, 2016) can be followed below.

SMILES strings stand for the structures.

Data set [1] in a line: Cytotoxicity against CHO cells expressing African green monkey SOAT1 assessed as change in cell shape at 10 ug/ml. It counts as toxicity, cell-based, Cricetulus griseus. The conditions noted are these: chinese hamster.
Data set [2] in a line: Cytotoxicity against CHO cells expressing African green monkey SOAT2 assessed as change in cell shape at 10 ug/ml. It counts as toxicity, cell-based, Cricetulus griseus. The conditions noted are these: chinese hamster.
Data set [3] addresses T1, SOAT1 (sterol O-acyltransferase 1) (Chlorocebus aethiops, UniProt O77760).
T1 sequence (O77760 whole entry): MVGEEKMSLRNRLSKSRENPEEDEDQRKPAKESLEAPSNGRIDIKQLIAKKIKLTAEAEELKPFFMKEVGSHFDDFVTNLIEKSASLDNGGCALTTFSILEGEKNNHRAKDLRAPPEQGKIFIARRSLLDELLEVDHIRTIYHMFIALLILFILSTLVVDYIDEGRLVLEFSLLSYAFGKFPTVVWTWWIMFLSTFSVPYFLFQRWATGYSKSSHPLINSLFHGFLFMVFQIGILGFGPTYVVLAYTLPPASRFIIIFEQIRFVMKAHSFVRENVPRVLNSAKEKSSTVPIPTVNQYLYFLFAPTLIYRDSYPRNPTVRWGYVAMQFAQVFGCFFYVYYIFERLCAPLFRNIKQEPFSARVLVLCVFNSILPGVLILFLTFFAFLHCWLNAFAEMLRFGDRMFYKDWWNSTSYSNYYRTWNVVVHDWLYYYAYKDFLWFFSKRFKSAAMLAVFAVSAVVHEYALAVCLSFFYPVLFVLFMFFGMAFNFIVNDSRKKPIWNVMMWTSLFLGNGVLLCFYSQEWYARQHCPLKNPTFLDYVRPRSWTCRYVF
As to the kind of experiment: Inhibition of African green monkey SOAT1 expressed in CHO cells assessed as reduction in [14C]cholesteryl ester formation from [1-14C]oleic acid at 10 ug/ml measured after 6 hrs relative to control. The data set is classed as ADME, cell-based. The note with it: CHO cells expressing African green monkey SOAT1, probe [1-14C]oleic acid.

Data set [4] deals with T2, Sterol O-acyltransferase 1 (Chlorocebus aethiops, UniProt O77760).
T2 sequence (O77760 whole entry): T1 sequence (O77760 whole entry)
As to the kind of experiment: Inhibition of African green monkey SOAT1 expressed in CHO cells assessed as reduction in [14C]cholesteryl ester formation from [1-14C]oleic acid measured after 6 hrs. It counts as ADME, cell-based.

Data set [5] concerns the target T3, Sterol O-acyltransferase 2 (Chlorocebus aethiops) (UniProt O77759).
T3 sequence (whole entry): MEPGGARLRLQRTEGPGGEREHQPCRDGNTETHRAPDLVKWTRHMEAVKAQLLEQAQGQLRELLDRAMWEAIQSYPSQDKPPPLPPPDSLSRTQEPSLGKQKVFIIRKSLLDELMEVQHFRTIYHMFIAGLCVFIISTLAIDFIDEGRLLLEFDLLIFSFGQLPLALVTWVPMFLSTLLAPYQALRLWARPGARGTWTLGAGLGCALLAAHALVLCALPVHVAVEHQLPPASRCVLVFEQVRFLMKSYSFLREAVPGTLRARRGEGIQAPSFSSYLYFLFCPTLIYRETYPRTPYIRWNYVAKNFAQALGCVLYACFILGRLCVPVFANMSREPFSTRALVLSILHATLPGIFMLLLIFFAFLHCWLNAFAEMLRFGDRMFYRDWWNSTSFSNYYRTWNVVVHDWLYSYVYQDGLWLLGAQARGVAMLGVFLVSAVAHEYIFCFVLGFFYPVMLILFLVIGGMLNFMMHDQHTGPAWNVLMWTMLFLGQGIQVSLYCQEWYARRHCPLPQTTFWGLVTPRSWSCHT
The data set is described as follows: Inhibition of African green monkey SOAT2 expressed in CHO cells assessed as reduction in [14C]cholesteryl ester formation from [1-14C]oleic acid at 10 ug/ml measured after 6 hrs relative to control. The data set is classed as cell-based.

In data set [6] the target is T4, Sterol O-acyltransferase 2 (Chlorocebus aethiops, UniProt O77759).
T4 sequence (O77759 whole entry): T3 sequence (whole entry)
The data set is described as follows: Inhibition of African green monkey SOAT2 expressed in CHO cells assessed as reduction in [14C]cholesteryl ester formation from [1-14C]oleic acid measured after 6 hrs. The data set is classed as cell-based.

Data set [7] is described as follows: Selectivity index, ratio of IC50 for African green monkey SOAT1 expressed in CHO cells to IC50 for African green monkey SOAT2 expressed in CHO cells. On the set-up: species or system Chlorocebus aethiops.

For the molecule `C=CC[C@@]1(O)C[C@@H](CCC)O[C@]2(C1)C(=O)Nc1ccccc12`, the Activity entry in data set [1] and in data set [2] was “Non-Toxic” throughout.
By inhibition is commonly meant the percentage by which the read-out fell short of the control. Usually IC50 stands for the concentration that inhibits the measured activity by half. Regarding `CCC[C@@H]1CC(=O)C[C@@]2(O1)C(=O)N(C)c1cccc(Br)c12`, the inhibition at 6 h, 10 ug/ml in data set [3] is over 50%. The Activity entry in data set [1] and in data set [2] was “Non-Toxic” throughout. Besides, the figures for the IC50 in data set [4] and in data set [6] were over 28 µM and 9.3 µM, respectively. Further, the inhibition in data set [5] was over 50%. In addition, the “Ratio IC50” value in data set [7] is reported as over 3.
In the case of `CCC[C@@H]1CC(=O)C[C@@]2(O1)C(=O)Nc1cccc(Br)c12`, the Activity entry in data set [1] and in data set [2] was “Non-Toxic” in each case.
Regarding `CCC[C@@H]1C[C@@H](O)C[C@@]2(O1)C(=O)Nc1ccccc12`, the Activity result in data set [1] and in data set [2] was “Non-Toxic” in each case.
As to `O=C1C[C@@H](CCCCl)O[C@]2(C1)C(=O)Nc1cccc(Br)c12`, the Activity result in data set [1] and in data set [2] was “Non-Toxic” each time.
Take `CCC[C@@H]1CC(=O)C[C@@]2(O1)C(=O)Nc1ccccc12`: in data set [2], the Activity entry is reported as “Non-Toxic”.
For the molecule `CCC[C@H]1C/C(=N/OCc2ccccc2)C[C@]2(O1)C(=O)Nc1ccccc12`, the inhibition at 6 h, 10 ug/ml in data set [3] was over 50%. Moreover, the IC50 amounted to 14 µM in data set [4] and 16 µM in data set [6]. Also, in data set [5], the inhibition was over 50%. In addition, the “Ratio IC50” value in data set [7] was 0.88.
On to `CCC[C@@H]1C/C(=N/OCc2ccccc2)C[C@@]2(O1)C(=O)Nc1ccccc12`, for which the inhibition at 6 h, 10 ug/ml in data set [3] was over 50%. In addition, the IC50 in data set [4] is 16 µM; in data set [6] it was 1.5 µM. Also, the inhibition in data set [5] was over 50%. The “Ratio IC50” value in data set [7] was 10 - 11.
As for `CCC[C@@H]1CC(=O)C[C@@]2(O1)C(=O)Nc1cccc(Cl)c12`, the Activity result in data set [1] and in data set [2] was “Non-Toxic” in each case.
In the case of `CCC[C@@H]1CC(=O)C[C@@]2(O1)C(=O)Nc1ccc(C)cc12`, the Activity entry in data set [1] and in data set [2] was “Non-Toxic” in each case.
On to `O=C1CC(c2ccccc2)O[C@]2(C1)C(=O)Nc1cccc(Br)c12` (mixture of isomers), for which, in data set [3], the inhibition at 6 h, 10 ug/ml was over 50%. Moreover, the Activity entry in data set [1] and in data set [2] was “Non-Toxic” throughout. Further, the inhibition in data set [5] was over 50%.
Regarding `CCC[C@@H]1C/C(=N/O)C[C@@]2(O1)C(=O)Nc1ccccc12` (racemic), the inhibition at 6 h, 10 ug/ml in data set [3] is over 50%. Moreover, the Activity entry in data set [1] and in data set [2] was “Non-Toxic” each time. Moreover, the inhibition in data set [5] is over 50%.
For `CCC[C@@H]1C[C@@H](NCc2ccccc2)C[C@@]2(O1)C(=O)Nc1ccccc12` (racemic), the inhibition at 6 h, 10 ug/ml in data set [3] is over 50%. In addition, the Activity result in data set [1] and in data set [2] was “Non-Toxic” throughout. Moreover, the figures for the IC50 in data set [4] and in data set [6] were over 28 µM and 6.8 µM, respectively. For the same molecule, the inhibition in data set [5] was over 50%. Moreover, the “Ratio IC50” value in data set [7] is reported as over 4.1.
`CCC[C@@H]1CC(=O)C[C@@]2(O1)C(=O)Nc1ccc(Br)cc12` (racemic): the Activity entry in data set [1] and in data set [2] was “Non-Toxic” each time.
For the molecule `CCC[C@@H]1CC(=NOCc2ccccc2)C[C@@]2(O1)C(=O)Nc1ccccc12` (racemic), the inhibition at 6 h, 10 ug/ml in data set [3] was over 50%. Besides, the values for the IC50 in data set [4] and in data set [6] were 8.9 µM and 3 µM, respectively. Also, in data set [5], the inhibition was over 50%. Also, in data set [7], the “Ratio IC50” value is given as 3.
`CCC[C@@H]1C[C@@H](NCc2ccccc2)C[C@@]2(O1)C(=O)N(C)c1cccc(Br)c12` (racemic): in data set [3], the inhibition at 6 h, 10 ug/ml was over 50%. Moreover, the concentration for half-maximal inhibition (IC50) in data set [4] is over 22 µM; in data set [6], over 33 µM. For the same molecule, the inhibition in data set [5] was over 50%.
Turning to `CCC[C@@H]1CC(=O)C[C@@]2(O1)C(=O)Nc1ccccc12` (racemic), in data set [1], the Activity result was “Non-Toxic”.
Consider `CCC[C@@H]1C[C@@H](NCc2ccccc2)C[C@@]2(O1)C(=O)N(C)c1ccccc12` (racemic), for which the inhibition at 6 h, 10 ug/ml in data set [3] is over 50%. Besides, the IC50 in data set [4] and in data set [6] was over 27 µM in each case. The inhibition in data set [5] was over 50%.
As for `CCC[C@@H]1CC(=O)C[C@@]2(O1)C(=O)Nc1cc(Cl)ccc12` (racemic), the Activity entry in data set [1] and in data set [2] was “Non-Toxic” throughout.
Turning to `CCC[C@@H]1C[C@@H](NCc2ccccc2)C[C@@]2(O1)C(=O)Nc1cccc(Br)c12` (racemic), the inhibition at 6 h, 10 ug/ml in data set [3] was over 50%. Further, the results for the IC50 in data set [4] and in data set [6] were over 23 µM and 12 µM, respectively. Besides, in data set [5], the inhibition is over 50%. Also, in data set [7], the “Ratio IC50” value is on record as over 1.9.
Turning to `CCC/C=C/C(=O)CC1(O)C(=O)Nc2ccccc21` (racemic), the Activity result in data set [1] and in data set [2] was “Toxic” each time.
For `CCC/C=C/C(=O)CC1(O)C(=O)Nc2cccc(Br)c21` (racemic), the inhibition at 6 h, 10 ug/ml in data set [3] was over 50%. The Activity result in data set [1] and in data set [2] was “Toxic” each time. The inhibition in data set [5] was over 50%.
For `CCC[C@@H]1C[C@@H](NCc2ccccc2)C[C@@]2(O1)C(=O)N(Cc1ccccc1)c1ccccc12` (racemic), the inhibition at 6 h, 10 ug/ml in data set [3] was over 50%. For the same molecule, the IC50 in data set [4] is 11 µM; in data set [6], 9.1 µM. The inhibition in data set [5] was over 50%. Further, the “Ratio IC50” value in data set [7] is reported as 1.2.
On to `CCC[C@@H]1C[C@@H](N2CCCC2)C[C@@]2(O1)C(=O)Nc1ccccc12` (racemic), for which the inhibition at 6 h, 10 ug/ml in data set [3] was over 50%. Moreover, the values for the IC50 in data set [4] and in data set [6] were over 31 µM and 26 µM, respectively. Moreover, the inhibition in data set [5] was over 50%. For the same molecule, in data set [7], the “Ratio IC50” value is given as over 1.2.
